In US9242951B2, “Covalent inhibition of bacterial quorum sensing” (priority 2009, dated 2016):
Read-outs that look alike come from different tables or passages of the source.

How the values were obtained:
LasR-LBD = biological target: T1, LasR-LBD (Pseudomonas aeruginosa, UniProt P25084); test: Expression of LasR-LBD in presence of probe; covalent labeling by LC-MS and soluble protein by SDS-PAGE; format: binding, P. aeruginosa; details: for covalent modification of purified LasR-LBD (LC-MS): 10-100 micro-M compound in bacterial growth culture; for soluble LasR-LBD obtained on expression in presence of compound: SDS-PAGE of purified protein
T1 construct: His6; made in house; host or cells: E. coli BL21 (pETM-11)
Protocol: All MS analyses were performed on a LCQ Fleet mass spectrometer (Thermo Scientific) with an ESI source. Spectra were collected in positive ion mode and analyzed by Xcalibur and Promass software (Thermo Scientific). For LC/MS analyses a Surveyor Plus HPLC System (Thermo Scientific) was used, equipped with a Luna C18, 5 μm (150×4.6 mm) column at a flow rate of 0.5 mL/min, using a mobile phase linear gradient of 0.1% aqueous formic acid (solvent A) and CH3CN containing 0.1% formic acid (solvent B).
The expression of full length LasR was previously found to yield largely insoluble protein in the presence or absence of the native ligand, 3-oxo-C12-HSL (Bottomley, M. J., Muraglia, E., Bazzo, R. & Carfi, A. Molecular insights into quorum sensing in the human pathogen Pseudomonas aeruginosa from the structure of the virulence regulator LasR bound to its autoinducer. J Biol Chem 282, 13592-600 (2007)). Therefore, expression was performed using a strain transformed with a pETM-11 vector encoding for a shortened, His6-tagged LasR construct, LasR-LBD (ligand-binding domain), spanning residues Met-1 to Lys-173. The plasmid was transferred into E. coli BL21 and cells were incubated in 1 mL rich LB medium for 1 hour. The cells were then grown on LB agar plates containing kanamycin (50 micro-g/mL). For expression, a single colony was selected and transferred into 5 mL of rich LB medium containing kanamycin and grown overnight. Proteins were expressed in the presence of either native 3-oxo-C12-HSL or different inhibitors and purified by Ni^2+ affinity chromatography as previously described (Bottomley, M. J., Muraglia, E., Bazzo, R. & Carfi, A. Molecular insights into quorum sensing in the human pathogen Pseudomonas aeruginosa from the structure of the virulence regulator LasR bound to its autoinducer. J Biol Chem 282, 13592-600 (2007), yielding ˜70 mg of purified protein per liter of LB medium using large scale expression conditions, and ˜0.5-1 mg of purified protein from 50 mL of LB medium using small scale expression conditions. The purification process was monitored by SDS-PAGE electrophoresis and the molecular mass of the purified proteins was confirmed by mass spectrometry.
1 mL of the overnight grown cell culture was used to inoculate 1 liter of rich LB medium containing kanamycin (50 micro-g/mL) and 10-100 micro-M of 3-oxo-C12-HSL or inhibitors 7a-c and 11a-g. Cells were grown to an optical density (OD600 nm) of 0.4, after which expression was induced at 21° C. by addition of 0.2 mM isopropyl 1-thio-beta-D-galactopyranoside (IPTG) and an additional amount of ligand/inhibitor was added to the media. After reaching an OD600 nm of 1.4 (approx. 6-8 hours), cells were centrifuged at 6000 rpm, washed and resuspended in lysis buffer containing 5 mM imidazole, 300 mM NaCl, 50 mM Tris-HCl, pH 8. Cells were ultrasonicated for 2 minutes at 70% amplitude for two cycles. The lysate was centrifuged at 12,000 rpm for 30 minutes, and the supernatants were purified by Ni^2+ affinity chromatography.
Small scale expression was performed in 50 mL volume following the previous procedure. Cells were harvested by chemical lysis, adding 1 mL of lysis buffer (5 mM imidazole, 300 mM NaCl, 0.2% (v/v) Triton X-100, 0.75 μg/mL DNase-I, 0.05 mM MgCl2, 0.01 mM CaCl2, 50 mM Tris-HCl, pH 8, and 0.01% (v/v) protein inhibitor cocktail), and incubated for 60 minutes at 37° C. Cell debris was removed by centrifugation at 4,000 rpm for 15 minutes. […]

[1] = test system: LasI reporter coupled to the luxCDABE luminescence system; test: P. aeruginosa PAO-JP2 QS agonist/antagonist assay (luminescence reporter); format: cell-based; details: for IC50: Pseudomonas aeruginosa, read-out: IC50, 3-oxo-C12-HSL antagonist activity in PAO-JP2
Protocol: P. aeruginosa PAO-JP2 QS Agonist/Antagonist Assay.
PAO-JP2, a lasI/rhlI-deleted strain harboring plasmid pKD201 containing a LasI reporter coupled to the luxCDABE luminescence system (see above), was incubated overnight in LB medium containing 300 micro-g/ml of trimethoprim. A 96-well black microtiter plate (Greiner) was prepared as described for the PA01 inhibition assay. The relative luminescence was then plotted against the added inhibitor concentration; IC50 values were calculated using Grafit 6.0 (Erithacus Software). For antagonist experiments, a final concentration of 50 nM 3-oxo-C12-HSL was used.

[2] = biological target: T2, LasR-LBD Cys79Ser mutation (Pseudomonas aeruginosa, UniProt P25084, C79S); test: Expression of LasR-LBD Cys79Ser mutant in presence of probe, covalent labeling; format: binding, P. aeruginosa
T2 construct: His6; made in house; host or cells: bacteria (E. coli BL21 as for wild-type LasR-LBD, inferred)

LasR-LBD Cys79Ala mutant = biological target: T3, LasR-LBD Cys79Ala mutant (Pseudomonas aeruginosa, UniProt P25084, C79A); test: Expression of LasR-LBD Cys79Ala mutant in presence of probe, covalent labeling; format: binding, P. aeruginosa
T3 construct: His6; made in house; host or cells: bacteria (E. coli BL21 as for wild-type LasR-LBD, inferred)

LasR [3] = biological target: T4, LasR (Pseudomonas aeruginosa, UniProt P25084); test: E. coli DH5-alpha LasR agonist/antagonist assay (PlasI-lacZ, beta-galactosidase); format: cell-based, P. aeruginosa
T4 construct: expressed in transfected cells; host or cells: E. coli DH5-alpha (pJN105L + pSC11 PlasI-lacZ)
Protocol: E. coli DH5-Alpha LasR Agonist/Antagonist Assay.
E. coli DH5-alpha harboring the LasR expression vector. pJN105L, and a plasmid-borne PlasI-lacZ fusion (pSC11) (Lee, J. H., Lequette, Y. & Greenberg, E. P. Activity of purified QscR, a Pseudomonas aeruginosa orphan quorum-sensing transcription factor. Mol Microbiol 59, 602-9 (2006)) was used to quantify quorum sensing inhibition by measuring expression levels of beta-galactosidase. Bacteria were incubated overnight in LB medium containing 100 micro-g/mL of ampicillin and 15 micro-g/mL of gentamicin. The culture was diluted at a 1:10 ratio by volume with fresh medium and further incubated until an OD600 nm of 0.3 was reached. A 96 well microtiter plate (Greiner) was prepared with the desired concentrations of inhibitors and bacteria were added to reach a final absorbance density (OD600 nm) of 0.3. Expression was induced at the edition of L-(+)-arabinose (4 mg/mL) and the plates were incubated at 37° C. for a period of 4 hours (OD600 nm of 0.45-0.5). The cultures were then assayed for beta-galactosidase activity according to the Miller assay method^46: […] were transferred to clear 96-well microtiter plates and the OD600 was recorded. […] was then added to a polypropylene-based 96-well microtiter plate containing […] of 0.1% SDS (w/v). Wells were thoroughly rinsed by pipetation, after which the chloroform was allowed to settle. […] upper layer was transferred to a fresh 96-well microtiter plate and […]-beta-D-galactopyranoside (ONPG, 4 mg/mL in phosphate buffer of pH 7) were added. The plates were incubated 35 minutes at 28° C. The reaction was terminated with the addition of […] sodium carbonate solution, and absorption at two wavelengths (550 nm, 429 nm) was recorded. Miller units were calculated using standard methods (Miller, J. H. Experiments in Molecular Genetics. 352-355 (Cold Spring Harbor Laboratories, 1972)). For antagonist experiments, a final concentration of 50 nM 3-oxo-C12-HSL was used.

[4] = test system: wild type P. aeruginosa PAO1 strain; test: Biofilm formation of wild type PAO1 in microtiter plates; format: cell-based; details: 50 micro-M, 24 h, versus DMSO
Protocol: (§1) To assess whether the reactive probes inhibit QS-regulated activities, such as biofilm formation and pyocyanin production, the wild type P. aeruginosa PAO1 strain was incubated in the presence of itc-12 and 4-Br-PHL (both at 50 micro-M), or DMSO, as a control, in microtiter plates that allow analysis of 24 h biofilm formation and in vials allowing measurement of 36 h pyocyanin production. […] However, even a partial reduction in biofilm formation may be sufficient to render the bacteria vulnerable to host responses, as not only is total biofilm mass affected upon disruption of QS, but also is its architecture, its degree of porosity and its extent of flexibility and robustness.

[5] = test system: LasI reporter coupled to the luxCDABE luminescence system; test: P. aeruginosa wild-type strain (PA01) QS inhibition assay (luminescence reporter); format: cell-based; details: for inhibition of lasI expression in PAO1-luxCDABE (virulence): FIG. 9; for IC50: Pseudomonas aeruginosa, PAO1, read-out: IC50, inhibition of luminescence in wild type PAO1 reporter strain
Protocol: P. aeruginosa Wild-Type Strain (PA01) QS Inhibition Assay.
The P. aeruginosa PA01 wild type strain harboring plasmid pKD201 containing a LasI reporter coupled to the luxCDABE luminescence system (Duan, K. & Surette, M. G. Environmental regulation of Pseudomonas aeruginosa PAO1 Las and Rhl quorum-sensing systems. J Bacteriol 189, 4827-36 (2007)), was incubated overnight in LB medium containing 300 micro-g/ml of trimethoprim. A 96-well black microtiter plate (Greiner) was prepared with the desired concentrations of inhibitors (up to 1 mM, above which growth inhibition was observed), and bacteria were added to reach a final absorbance density (OD600 nm) of 0.015. The plate was then incubated for a period of 12 hours at 37° C. During this time, luminescence measurements were performed at 10 minute intervals. The relative luminescence was then plotted against the added inhibitor concentration; IC50 values were calculated using Grafit 6.0 (Erithacus Software).

[6] = test system: wild type P. aeruginosa PAO1 strain; test: Pyocyanin production of wild type PAO1; format: cell-based; details: 50 micro-M, 36 h, versus DMSO
Protocol: as §1

LasR [7] = biological target: T4, LasR; details: read-out: IC50 reported by Geske et al.; E. coli-based LasR antagonist assay, literature value; cited from earlier work

T4 sequence (P25084 whole entry): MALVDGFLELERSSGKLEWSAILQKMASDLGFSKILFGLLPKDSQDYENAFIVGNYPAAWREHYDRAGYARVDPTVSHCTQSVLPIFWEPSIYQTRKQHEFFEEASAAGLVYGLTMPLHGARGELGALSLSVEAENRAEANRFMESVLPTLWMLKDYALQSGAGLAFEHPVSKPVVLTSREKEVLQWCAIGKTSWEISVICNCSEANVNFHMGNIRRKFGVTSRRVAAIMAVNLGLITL
T1 sequence (P25084 1-173): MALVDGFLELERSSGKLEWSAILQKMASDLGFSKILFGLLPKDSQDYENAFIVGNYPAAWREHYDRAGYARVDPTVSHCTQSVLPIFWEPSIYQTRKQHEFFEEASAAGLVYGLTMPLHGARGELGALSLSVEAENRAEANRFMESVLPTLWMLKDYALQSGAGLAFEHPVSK
T3 sequence (P25084 1-173 C79A): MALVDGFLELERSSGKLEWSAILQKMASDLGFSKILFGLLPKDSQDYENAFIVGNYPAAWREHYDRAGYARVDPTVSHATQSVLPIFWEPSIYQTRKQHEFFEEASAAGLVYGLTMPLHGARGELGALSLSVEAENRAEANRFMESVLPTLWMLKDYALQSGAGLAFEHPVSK
T2 sequence (P25084 1-173 C79S): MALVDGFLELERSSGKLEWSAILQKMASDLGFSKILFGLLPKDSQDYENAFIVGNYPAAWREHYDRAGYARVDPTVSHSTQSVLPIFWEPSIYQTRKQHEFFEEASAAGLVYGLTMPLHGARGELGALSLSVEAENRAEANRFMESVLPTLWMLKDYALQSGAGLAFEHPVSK

Row | Structure (SMILES) | covalent modification of purified LasR-LBD (LC-MS) (LasR-LBD) | IC50 (LasR [3]) | IC50 [5] | IC50 [1] | further results
1 | [N-]=[N+]=NCCCCCCCCCC(=O)CC(=O)NC1CCOC1=O (stereo not drawn) [azido-C12, 12-azido-3-oxo-N-(2-oxotetrahydrofuran-3-yl)dodecanamide] | no covalently labeled product | – | – | – | inhibitory activity compared with itc-12 ([1]; data not shown): significantly lower than that of itc-12
2 | O=C(CCCCCCCCCN=C=S)CC(=O)NC1CCOC1=O (stereo not drawn) [itc-12, 12-isothiocyanato-3-oxo-N-(2-oxotetrahydrofuran-3-yl)dodecanamide] | covalently modified | 29.8 ± 0.5 µM | 113 ± 19 µM | 134 ± 6 µM | covalent modification of LasR-LBD Cys79Ser [2]: no covalent modification being observed; soluble protein, LasR-LBD Cys79Ser [2]: yielded expression of soluble protein; soluble protein, LasR-LBD Cys79Ala mutant (LasR-LBD Cys79Ala mutant): Soluble protein was, however, obtained; covalent modification of LasR-LBD Cys79Ala mutant (LasR-LBD Cys79Ala mutant; data not shown): no covalent modification was detected; inhibition of biofilm formation [4]: significantly inhibited; soluble LasR-LBD obtained on expression in presence of compound (LasR-LBD): larger amounts of soluble LasR-LBD; inhibition of lasI expression in PAO1-luxCDABE (virulence) [5]: dose-dependent manner; inhibition of pyocyanin production [6]: significantly inhibited; agonism in PAO-JP2-based reporter ([1]; markedly reduced levels compared to natural autoinducer): partial agonism patterns
3 | O=C(CCCCCCCCCS)CC(=O)NC1CCOC1=O (stereo not drawn) [thiol-11, 12-Mercapto-3-Oxo-N-(2-Oxotetrahydrofuran-3-yl)Dodecanamide] | – | – | – | – | inhibition of lasI expression in PAO1-luxCDABE (virulence) [5]: dose-dependent manner
4 | O=C(CCCCCCCCNC(=O)CCl)CC(=O)N[C@H]1CCOC1=O [hal-11-Cl] | – | 3.1 ± 0.1 µM | – | – | –
5 | O=C(Cc1ccc(Br)cc1)NC1CCOC1=O (stereo not drawn) [4-Br-PHL, 2-(4-bromophenyl)-N-(2-oxo-tetrahydrofuran-3-yl)-acetamide, reference compound] | – | 4.8 ± 0.5 µM | ~250 µM | ~200 µM | inhibition of biofilm formation [4]: significantly inhibited; soluble LasR-LBD obtained on expression in presence of compound (LasR-LBD): no soluble LasR was observed; IC50 (LasR [7]): 3.9 µM; inhibition of pyocyanin production [6]: significantly inhibited
6 | O=C(CCCCCCCCNC(=O)CBr)CC(=O)N[C@H]1CCOC1=O [hal-11-Br] | – | 26.8 ± 1.3 µM | – | – | –
7 | O=C(CCCCCCCCCNC(=O)CCl)CC(=O)N[C@H]1CCOC1=O [hal-12-Cl] | – | – | – | 70 ± 27 µM | IC50 (LasR [3]; antagonism of LasR activation by 50 nM 3-oxo-C12-HSL, E. coli reporter, read-out: IC50, E. coli-based LasR antagonist studies): 1.1 ± 0.1 µM
8 | O=C(CCCCCCCCN=C=S)CC(=O)NC1CCOC1=O (stereo not drawn) [itc-11, 11-isothiocyanato-3-oxo-N-(2-oxotetrahydrofuran-3-yl)undecanamide] | covalently modified | 39.1 ± 9.4 µM | ~300 µM | – | –
9 | O=C(CCCCCCCCCCN=C=S)CC(=O)NC1CCOC1=O (stereo not drawn) [itc-13, 13-isothiocyanato-3-oxo-N-(2-oxotetrahydrofuran-3-yl)tridecanamide] | – | 19.2 ± 3.9 µM | 45.2 ± 0.7 µM | 30 ± 7 µM | –
